≈ marks a conversion by molar mass, not a printed value. Like-named read-outs stand apart in the source and are kept apart here. Bounds are passed on as bounds.

Test [1] deals with Haemophilus influenzae R252. Nature of the test: MIC, standard agar-dilution assay, Haemophilus influenzae R252. It is filed as cell-based.
The next test concerns Mycoplasma gallisepticum. The experiment in a line: MIC, broth-dilution microtiter test, Mycoplasma gallisepticum. It is filed as cell-based. The text has this: (§1) The MIC's in Table X were obtained using conventional broth-dilution microtiter tests.
In test [2] the test system is Pasteurella multocida 17E. The experiment in a line: MIC, broth-dilution microtiter test, Pasteurella multocida 17E. It is filed as cell-based. The note with it: Pasteurella multocida 17E, bovine isolate, broth-dilution microtiter.
Description: as §1

Test [3] deals with Staphylococcus epidermidis EPI1. The experiment in a line: MIC, standard agar-dilution assay, Staphylococcus epidermidis EPI1. It counts as cell-based.
The test system of test [4] is Pasteurella hemolytica 22C. Nature of the test: MIC, broth-dilution microtiter test, Pasteurella hemolytica 22C. Conditions: Pasteurella hemolytica 22C, broth-dilution microtiter. It counts as cell-based.
Description: as §1

For test [5], the system named is Streptococcus pyogenes C203. Nature of the test: MIC, standard agar-dilution assay, Streptococcus pyogenes C203. It is filed as cell-based. The note with it: Streptococcus pyogenes, C203.
In test [6] the test system is Haemophilus influenzae Holt. Nature of the test: MIC, standard agar-dilution assay, Haemophilus influenzae Holt. It is filed as cell-based.
Test [7] has as its system Streptococcus pneumoniae Park I. The experiment in a line: microbe, parasite or virus in culture. It is filed as cell-based.
For a further test, the system named is Staphylococcus aureus. The experiment in a line: MIC, broth-dilution microtiter test, Staphylococcus aureus. It counts as cell-based.
Description: as §1

Test [8] relates to Streptococcus Group D X66. Nature of the test: MIC, standard agar-dilution assay, Streptococcus Group D X66. The note with it: Streptococcus Group D X66, agar dilution. It is filed as cell-based.
Test [9] concerns Pasteurella multocida 60A. The experiment in a line: MIC, broth-dilution microtiter test, Pasteurella multocida 60A. The note with it: Pasteurella multocida 60A, avian isolate, broth-dilution microtiter. It counts as cell-based.
Description: as §1

Test [10] relates to Staphylococcus aureus X400. Nature of the test: MIC, standard agar-dilution assay, Staphylococcus aureus X400. It counts as cell-based.
Test [11] has as its system Staphylococcus epidermidis EPI2. Nature of the test: MIC, standard agar-dilution assay, Staphylococcus epidermidis EPI2. It counts as cell-based.
In the next test the test system is Streptococcus Group 9960. Nature of the test: MIC, standard agar-dilution assay, Streptococcus Group 9960. It is filed as cell-based. Conditions: Streptococcus Group 9960, agar dilution. A general note: In agar dilution the substance is mixed into plates at graded concentrations.
The test system of the next test is Streptococcus bovis 80. Nature of the test: MIC, broth-dilution microtiter test, Streptococcus bovis 80. It is filed as cell-based. The note with it: Streptococcus bovis 80, broth-dilution microtiter.
Description: as §1

The subject of a further test is Mycoplasma hyorhinis. The experiment in a line: MIC, broth-dilution microtiter test, Mycoplasma hyorhinis. It is filed as cell-based.
Description: as §1

The test system of test [12] is Staphylococcus aureus S13E. Nature of the test: MIC, standard agar-dilution assay, Staphylococcus aureus S13E. It is filed as cell-based.
Test [13] concerns Staphylococcus aureus V41. The experiment in a line: MIC, standard agar-dilution assay, Staphylococcus aureus V41. It is filed as cell-based.
Test [14] has as its system Staphylococcus aureus X1.1. The experiment in a line: MIC, standard agar-dilution assay, Staphylococcus aureus X1.1. It is filed as cell-based.
Test [15] has as its system Streptococcus pyogenes C203. Nature of the test: In vivo protection of mice experimentally infected with S. pyogenes C203. Conditions: mice, doses given 1 and 4 hours post-infection. On the procedure:
The C-20 modified derivatives of this invention have shown in vivo antimicrobial activity against experimentally-induced infections in laboratory animals. When two doses of test compound were administered to mice experimentally infected with S. pyogenes C203, the activity observed was measured as an ED50 value [effective dose in mg/kg to protect 50% of the test animals: see Warren Wick, et al., J. Bacteriol. 81, 233-235 (1961)].

[16] abbreviates: Staphylococcus epidermidis, EPI1.
[17] abbreviates: Staphylococcus epidermidis, EPI2.
Where [18] appears, read: Streptococcus equinus, read-out: MIC.

On to `CCC1OC(=O)CC(O)C(C)C(OC2OC(C)C(OC3CC(C)(O)C(O)C(C)O3)C(N(C)C)C2O)C(CCNC(=O)Cc2ccccc2)CC(C)C(=O)C=CC(C)=CC1COC1OC(C)C(O)C(OC)C1OC` (stereo not shown) [Compound 3, 20-DH-DO-20-[N-(Phenylacetyl)amino]tylosin], for which the MIC is 64 µg/mL (≈ 61.8 µM) in [1] (Haemophilus influenzae, R252); 0.78 µg/mL (≈ 0.753 µM) against Mycoplasma gallisepticum (Mycoplasmoides gallisepticum); more than 50 µg/mL in [2] (read-out: MIC); 0.5 µg/mL (≈ 0.483 µM) in test [3] (setting [16]); more than 50 µg/mL in test [4] (read-out: MIC); 2 µg/mL (≈ 1.93 µM) in test [5]. For the same compound, the MIC in [6] (Haemophilus influenzae) is 128 µg/mL (≈ 124 µM); in test [7] (Streptococcus pneumoniae), 1 µg/mL (≈ 0.966 µM); against Staphylococcus aureus, 1.56 µg/mL (≈ 1.51 µM); in test [8] (read-out: MIC), 64 µg/mL (≈ 61.8 µM); in test [9] (read-out: MIC), more than 50 µg/mL; in [10] (Staphylococcus aureus, X400), 2 µg/mL (≈ 1.93 µM). In addition, the MIC in [11] (setting [17]) came to 0.5 µg/mL (≈ 0.483 µM); in the test with Streptococcus Group 9960 (GROUP9960, read-out: MIC), 64 µg/mL (≈ 61.8 µM); with Streptococcus bovis 80 (setting [18]), 6.25 µg/mL (≈ 6.04 µM); against Mycoplasma hyorhinis (Mycoplasma), 12.5 µg/mL (≈ 12.1 µM); in [12] (Staphylococcus aureus, S13E) it was 0.5 µg/mL (≈ 0.483 µM); in [13] (Staphylococcus aureus, V41), 1 µg/mL (≈ 0.966 µM). This compound showed an MIC in test [14] (Staphylococcus aureus, X1.1) of 1 µg/mL (≈ 0.966 µM).

In the case of `CCC(=O)OC1C(OC2C(CCN3C(=O)c4ccccc4C3=O)CC(C)C(=O)C=CC(C)=CC(COC3OC(C)C(O)C(OC)C3OC)C(CC)OC(=O)CC(O)C2C)OC(C)C(OC2CC(C)(O)C(O)C(C)O2)C1N(C)C` (stereo not shown) [Compound 62, 20-DH-DO-20-N-Phthalimido-2'-O-propionyltylosin], the MIC result is “-- (Not active at 128 mcg/ml, the highest level tested)” in test [1] (Haemophilus influenzae R252, ampicillin-resistant strain, agar dilution); 1.56 µg/mL (≈ 1.41 µM) with Mycoplasma gallisepticum (Mycoplasma gallisepticum, broth-dilution microtiter); “-- (Not active at 50 mcg/ml, the highest level tested)” in test [2]; 1 µg/mL (≈ 0.906 µM) in [3] (Staphylococcus epidermidis EPI1, agar dilution); “-- (Not active at 50 mcg/ml, the highest level tested)” in [4]; “-- (Not active at 128 mcg/ml, the highest level tested)” in test [6] (Haemophilus influenzae Holt, ampicillin-sensitive strain, agar dilution). Further, the MIC was 2 µg/mL (≈ 1.81 µM) in test [7] (Streptococcus pneumoniae Park I, agar dilution); 3.12 µg/mL (≈ 2.83 µM) against Staphylococcus aureus (broth-dilution microtiter); “-- (Not active at 128 mcg/ml, the highest level tested)” in [8]; “-- (Not active at 50 mcg/ml, the highest level tested)” in test [9]; 2 µg/mL (≈ 1.81 µM) in test [10] (Staphylococcus aureus X400, methicillin-resistant strain, agar dilution); 1 µg/mL (≈ 0.906 µM) in test [11] (Staphylococcus epidermidis EPI2, agar dilution). The MIC result with Streptococcus Group 9960 is “-- (Not active at 128 mcg/ml, the highest level tested)”; in the test on Streptococcus bovis 80, 12.5 µg/mL (≈ 11.3 µM); in the test with Mycoplasma hyorhinis (Mycoplasma hyorhinis, broth-dilution microtiter) it was 50 µg/mL (≈ 45.3 µM); in test [12] (Staphylococcus aureus S13E, agar dilution) it was 1 µg/mL (≈ 0.906 µM); in test [13] (Staphylococcus aureus V41, penicillin-resistant strain, agar dilution), 1 µg/mL (≈ 0.906 µM); in test [14] (Staphylococcus aureus X1.1, agar dilution), 1 µg/mL (≈ 0.906 µM). Also, the “ED50, Oral” value in test [15] (oral) is 66 mg/kg × 2. The “ED50, Subcutaneous” value in test [15] (subcutaneous) is reported as more than 6.3 mg/kg × 2.

Consider `CCC1OC(=O)CC(O)C(C)C(OC2OC(C)C(OC3CC(C)(O)C(O)C(C)O3)C(N(C)C)C2O)C(CCI)CC(C)C(=O)C=CC(C)=CC1COC1OC(C)C(O)C(O)C1OC` (stereo not shown) [Compound 52, 20-DH-DO-20-Iodomacrocin], for which the MIC in test [1] (Haemophilus influenzae R252, ampicillin-resistant strain, read-out: MIC) was more than 128 µg/mL; against Mycoplasma gallisepticum (Mycoplasmoides gallisepticum), 3.12 µg/mL (≈ 3.08 µM); in [2] (read-out: MIC), more than 50 µg/mL; in [3] (setting [16]), 2 µg/mL (≈ 1.97 µM); in test [4] (read-out: MIC), more than 50 µg/mL; in test [5], 4 µg/mL (≈ 3.94 µM). The MIC in test [6] (Haemophilus influenzae Holt, ampicillin-sensitive strain, read-out: MIC) was more than 128 µg/mL; in [7] (Streptococcus pneumoniae Park I, agar dilution, read-out: MIC), 16 µg/mL (≈ 15.8 µM); against Staphylococcus aureus it was 12.5 µg/mL (≈ 12.3 µM); in test [8] (read-out: MIC) it was 128 µg/mL (≈ 126 µM); in test [9] (read-out: MIC), more than 50 µg/mL; in test [10] (Staphylococcus aureus, X400) it was 8 µg/mL (≈ 7.89 µM). Besides, the MIC turned out to be 2 µg/mL (≈ 1.97 µM) in [11] (setting [17]); 128 µg/mL (≈ 126 µM) in the test on Streptococcus Group 9960 (GROUP9960, read-out: MIC); 50 µg/mL (≈ 49.3 µM) in the test with Streptococcus bovis 80 (setting [18]); 50 µg/mL (≈ 49.3 µM) in the test on Mycoplasma hyorhinis (Mycoplasma); 4 µg/mL (≈ 3.94 µM) in test [12] (Staphylococcus aureus, S13E); 2 µg/mL (≈ 1.97 µM) in [13] (Staphylococcus aureus, V41). Besides, the MIC in [14] (Staphylococcus aureus, X1.1) was 2 µg/mL (≈ 1.97 µM).
